From PMC7382816 (BMC Pharmacology & Toxicology, 2020)
Where two headings read alike, the source gives them in different places.

Columns and labels:
[1] = Single-dose pharmacokinetics in healthy volunteers under fasting and fed (high-fat breakfast) conditions, plasma concentrations by HPLC-MS, non-compartmental analysis; format: in vivo, human; design: Ke: unit not given here
From the text: The bioequivalence clinical trials were phase I, randomized, open-label, crossover, single-centre, with two periods separated by a 7-day washout stage. Subjects were randomised to one of the two treatment sequences, RT or TR where R was the reference formulation and T was the test formulation. Each of the clinical trial was crossover for evaluation of a test formulation compared to a reference formulation either under fed or fasting conditions. […] The treatments were allocated in a balanced manner on every inclusion day (blocks of 4 subjects). Our study adheres to CONSORT guidelines. […] Sample processing, genotyping for CYP2C19 and drug quantification were performed according to Román et al. […] Pharmacokinetic parameters were estimated from the plasma concentration–time data by non-compartmental analysis (WinNonlin Professional, version 2.0., Pharsight Corporation, USA) as reported by Román et al. […] WinNonLin Professional software version 2.0 was used for the statistical analysis. Pharmacokinetic parameters were log-transformed, and AUC and Cmax were adjusted for dose and weight. The values of pharmacokinetic parameters were expressed as mean ± standard deviation.

[2] = review; ref [26] Swan et al.; cited from earlier work
[3] = Fed (high-fat breakfast), all subjects, single oral dose, mean ± SD
[4] = both sexes, human, plasma, oral, only CYP2C19*1/*1 subjects, Fast, men and women, mean ± SD
[5] = both sexes, human, plasma, oral, only CYP2C19*1/*1 subjects, Fed, men and women, mean ± SD
[6] = both sexes, human, plasma, po, Fast, all subjects, single oral dose, mean ± SD
[7] = both sexes, human, plasma, po, Fed (high-fat breakfast), all subjects, single oral dose, mean ± SD
[8] = female, human, plasma, oral, only CYP2C19*1/*1 subjects, Fast, women, mean ± SD
[9] = female, human, plasma, oral, only CYP2C19*1/*1 subjects, Fed, women, mean ± SD
[10] = female, human, plasma, po, Fast, women, single oral dose, mean ± SD
[11] = female, human, plasma, po, Fed, women, single oral dose, mean ± SD
[12] = male, human, plasma, oral, only CYP2C19*1/*1 subjects, Fast, men, mean ± SD
[13] = male, human, plasma, oral, only CYP2C19*1/*1 subjects, Fed, men, mean ± SD
[14] = male, human, plasma, po, Fast, men, single oral dose, mean ± SD
[15] = male, human, plasma, po, Fed, men, single oral dose, mean ± SD

Ke ([1]; Fast, all subjects, single oral dose, mean ± SD): 0.60 ± 0.20
Ke ([1]; Fast, men, single oral dose, mean ± SD): 0.64 ± 0.20
Ke ([1]; Fast, women, single oral dose, mean ± SD): 0.56 ± 0.20
Cmax [1, 3]: 675.8 ± 218.8 ng/mL
Ke [1, 3]: 0.42 ± 0.22
Ke ([1]; Fed, men, single oral dose, mean ± SD): 0.38 ± 0.17
Ke ([1]; Fed, women, single oral dose, mean ± SD): 0.48 ± 0.27
AUC(0-inf) [1, 4]: 901 ± 235 ng·h/mL
CL/F [1, 4]: 6.17 mL/min/kg
Vd/F [1, 4]: 0.6 ± 0.11 L/kg
half-life [1, 4]: 1.3 ± 0.6 h
Cmax ([1]; both sexes, human, plasma, oral, only CYP2C19*1/*1 subjects, Fast, men and women, mean ± SD, read-out: Cmax): 536 ± 138 ng/mL
Tmax ([1]; both sexes, human, plasma, oral, only CYP2C19*1/*1 subjects, Fast, men and women, mean ± SD, read-out: Tmax): 3.9 ± 0.8 h
AUC(0-inf) [1, 5]: 969 ± 388 ng·h/mL
CL/F [1, 5]: 6.33 mL/min/kg
Vd/F [1, 5]: 0.92 ± 0.34 L/kg
half-life [1, 5]: 2 ± 0.9 h
Cmax ([1]; both sexes, human, plasma, oral, only CYP2C19*1/*1 subjects, Fed, men and women, mean ± SD, read-out: Cmax): 606 ± 207 ng/mL
Tmax ([1]; both sexes, human, plasma, oral, only CYP2C19*1/*1 subjects, Fed, men and women, mean ± SD, read-out: Tmax): 9.1 ± 3.3 h
Tmax ([1]; both sexes, human, plasma, oral, under fasting conditions, range among subjects, read-out: Tmax range): 2 to 7 h
Tmax ([1]; both sexes, human, plasma, oral, under fed conditions, range among subjects, read-out: Tmax range): 3 to 20 h
AUC(0-inf) [1, 6]: 972 ± 361 ng·h/mL
CL/F [1, 6]: 5.83 mL/min/kg
Vd/F [1, 6]: 0.6 ± 0.17 L/kg
half-life [1, 6]: 1.3 ± 0.5 h
Cmax ([1]; both sexes, human, plasma, po, Fast, all subjects, single oral dose, mean ± SD, read-out: Cmax): 556 ± 176 ng/mL
Tmax ([1]; both sexes, human, plasma, po, Fast, all subjects, single oral dose, mean ± SD, read-out: Tmax): 3.7 ± 0.9 h
AUC(0-inf) [1, 7]: 1050 ± 382 ng·h/mL
CL/F [1, 7]: 5.67 mL/min/kg
Vd/F [1, 7]: 0.91 ± 0.45 L/kg
half-life [1, 7]: 2.2 ± 1.3 h
Tmax ([1]; both sexes, human, plasma, po, Fed (high-fat breakfast), all subjects, single oral dose, mean ± SD, read-out: Tmax): 7.2 ± 2.6 h
difference in AUC between men and women ([1]; effect of sex (CYP2C19*1/*1 subjects, fed conditions)): around 5%
Cmax higher under fed conditions ([1]; fed vs fasting, all subjects): 21%
Delay of mean Tmax (absorption) by food ([1]; fed vs fasting, all subjects): about 3.5 h
half-life higher under fed conditions ([1]; fed vs fasting, all subjects): 66%
Delay of Tmax by food ([1]; fed vs fasting, only subjects with CYP2C19*1/*1): 5.2 h
AUC(0-inf) [1, 8]: 932 ± 172 ng·h/mL
CL/F [1, 8]: 6.83 mL/min/kg
Vd/F [1, 8]: 0.61 ± 0.12 L/kg
half-life [1, 8]: 1.1 ± 0.2 h
Cmax ([1]; female, human, plasma, oral, only CYP2C19*1/*1 subjects, Fast, women, mean ± SD, read-out: Cmax): 560 ± 136 ng/mL
Tmax ([1]; female, human, plasma, oral, only CYP2C19*1/*1 subjects, Fast, women, mean ± SD, read-out: Tmax): 3.8 ± 0.7 h
AUC(0-inf) [1, 9]: 944 ± 470 ng·h/mL
CL/F [1, 9]: 7.5 mL/min/kg
Vd/F [1, 9]: 0.85 ± 0.32 L/kg
half-life [1, 9]: 1.5 ± 0.9 h
Cmax ([1]; female, human, plasma, oral, only CYP2C19*1/*1 subjects, Fed, women, mean ± SD, read-out: Cmax): 634 ± 221 ng/mL
Tmax ([1]; female, human, plasma, oral, only CYP2C19*1/*1 subjects, Fed, women, mean ± SD, read-out: Tmax): 8.2 ± 0.6 h
AUC(0-inf) [1, 10]: 1120 ± 361 ng·h/mL
CL/F [1, 10]: 5.83 mL/min/kg
Vd/F [1, 10]: 0.65 ± 0.2 L/kg
half-life [1, 10]: 1.4 ± 0.5 h
Cmax ([1]; female, human, plasma, po, Fast, women, single oral dose, mean ± SD, read-out: Cmax): 638 ± 177 ng/mL
Tmax ([1]; female, human, plasma, po, Fast, women, single oral dose, mean ± SD, read-out: Tmax): 3.7 ± 0.9 h
AUC(0-inf) [1, 11]: 1050 ± 420 ng·h/mL
CL/F [1, 11]: 6.33 mL/min/kg
Vd/F [1, 11]: 0.92 ± 0.37 L/kg
half-life [1, 11]: 2 ± 1.3 h
Cmax ([1]; female, human, plasma, po, Fed, women, single oral dose, mean ± SD, read-out: Cmax): 728 ± 284 ng/mL
Tmax ([1]; female, human, plasma, po, Fed, women, single oral dose, mean ± SD, read-out: Tmax): 7.6 ± 2 h
AUC(0-inf) [1, 12]: 870 ± 296 ng·h/mL
CL/F [1, 12]: 5.5 mL/min/kg
Vd/F [1, 12]: 0.59 ± 0.1 L/kg
half-life [1, 12]: 1.5 ± 0.7 h
Cmax ([1]; male, human, plasma, oral, only CYP2C19*1/*1 subjects, Fast, men, mean ± SD, read-out: Cmax): 512 ± 147 ng/mL
Tmax ([1]; male, human, plasma, oral, only CYP2C19*1/*1 subjects, Fast, men, mean ± SD, read-out: Tmax): 3.9 ± 1 h
AUC(0-inf) [1, 13]: 1000 ± 323 ng·h/mL
CL/F [1, 13]: 5 mL/min/kg
Vd/F [1, 13]: 1.02 ± 0.39 L/kg
half-life [1, 13]: 2.5 ± 0.7 h
Cmax ([1]; male, human, plasma, oral, only CYP2C19*1/*1 subjects, Fed, men, mean ± SD, read-out: Cmax): 572 ± 215 ng/mL
Tmax ([1]; male, human, plasma, oral, only CYP2C19*1/*1 subjects, Fed, men, mean ± SD, read-out: Tmax): 10.3 ± 5.1 h
AUC(0-inf) [1, 14]: 836 ± 313 ng·h/mL
CL/F [1, 14]: 5.83 mL/min/kg
Vd/F [1, 14]: 0.55 ± 0.11 L/kg
half-life [1, 14]: 1.2 ± 0.5 h
Cmax ([1]; male, human, plasma, po, Fast, men, single oral dose, mean ± SD, read-out: Cmax): 479 ± 140 ng/mL
Tmax ([1]; male, human, plasma, po, Fast, men, single oral dose, mean ± SD, read-out: Tmax): 3.6 ± 0.9 h
AUC(0-inf) [1, 15]: 1050 ± 361 ng·h/mL
CL/F [1, 15]: 5.17 mL/min/kg
Vd/F [1, 15]: 0.91 ± 0.52 L/kg
half-life [1, 15]: 2.3 ± 1.3 h
Cmax ([1]; male, human, plasma, po, Fed, men, single oral dose, mean ± SD, read-out: Cmax): 635 ± 145 ng/mL
Tmax ([1]; male, human, plasma, po, Fed, men, single oral dose, mean ± SD, read-out: Tmax): 6.9 ± 3 h
Ke ([1]; only CYP2C19*1/*1 subjects, Fast, men and women, mean ± SD): 0.63 ± 0.20
Ke ([1]; only CYP2C19*1/*1 subjects, Fast, men, mean ± SD): 0.57 ± 0.25
Ke ([1]; only CYP2C19*1/*1 subjects, Fast, women, mean ± SD): 0.68 ± 0.13
Ke ([1]; only CYP2C19*1/*1 subjects, Fed, men and women, mean ± SD): 0.45 ± 0.23
Ke ([1]; only CYP2C19*1/*1 subjects, Fed, men, mean ± SD): 0.30 ± 0.11
Ke ([1]; only CYP2C19*1/*1 subjects, Fed, women, mean ± SD): 0.57 ± 0.25
Structure (SMILES): COCCCOc1ccnc(C[S+]([O-])c2nc3ccccc3[nH]2)c1C (centres unmarked) [Rabeprazole, rabeprazole]
influence of co-ingestion of food on bioavailability [2]: not influenced
